Measured values published in patent publication US20110201497A1, “Composition Comprising A Pesticide and an Alkoxylate of Iso-Heptadecylamine” (BASF SE, priority 2010, published 2011).

Columns and labels:
[1] = system: winter wheat; experiment: Greenhouse test, herbicidal activity of glyphosate SL with amine alkoxylate against winter wheat; assay type: in vivo, winter wheat (cv. Cubus); settings: scored vs untreated control
Protocol: (§1) To carry out greenhouse tests, the winter wheats (cv. Cubus) or soybeans (cv. Oxford) were sown or potted in loamy sand at a sowing depth of 1-2 cm. As soon as the plants had reached a height of 10 to 25 cm (i.e. approx. 10 to 21 days after sowing), the spray mixtures were applied to the plants in a spray cabinet.
(§2) A concentrated formulation comprising glyphosate isoproylammonium dissolved in water and amine alkoxylate of example 2 were diluted with fully demineralized water and were applied at a water application rate of 375 l/ha ([…]). The temperatures during the experimental period, which lasted for 3 to 4 weeks, were between 18 and 35° C. During this time, the test plants received optimal irrigation, the nutrient supply being effected via the irrigation water.
(§3) The herbicidal activity was assessed by scoring the treated plants in comparison with the untreated control plants (table 1). The assessment scale goes from 0% to 100% activity. 100% activity means complete dying at least of the aerial plant parts. In contrast, 0% activity means that no differences were observed between treated and untreated plants. The results in table 1 and 2 confirm the increased activity of the active substance by addition of the amine alkoxylate.

[2] = system: soybean; experiment: Greenhouse test, herbicidal activity of glyphosate SL with amine alkoxylate against soybean; assay type: in vivo, soybean (cv. Oxford); settings: scored vs untreated control
Protocol: as §1, §2, §3

[3] = glyphosate 140 g/ha, amine alkoxylate (where present) 300 g/ha, 375 l/ha water
[4] = glyphosate 280 g/ha, with amine alkoxylate where named

In the case of `O=C(O)CNCP(=O)(O)O` [glyphosate], the “Activity [%] after 14 days” value [1, 3] is reported as 64%, the “Activity [%] after 21 days” value [1, 3] is reported as 73% and the “Activity [%] after 28 days” value [1, 3] is reported as 73%. For the same compound, the “Activity [%] after 14 days” value [1, 4] was 71%, the “Activity [%] after 21 days” value [1, 4] was 81% and the “Activity [%] after 28 days” value [1, 4] was 81%. The “Activity [%] after 14 days” value [2, 3] was 29%, the “Activity [%] after 21 days” value [2, 3] was 38% and the “Activity [%] after 28 days” value [2, 3] was 38%. The “Activity [%] after 14 days” value [2, 4] was 36%, the “Activity [%] after 21 days” value [2, 4] was 40% and the “Activity [%] after 28 days” value [2, 4] was 40%.
